Regarding `O=C(O)c1cncc(NC(=S)Nc2ccc(Cl)cc2)c1` [Compound 2, 5-(3-(4-Chlorophenyl)thioureido)pyridine-3-carboxylic acid], the melting point – broadly, the temperature of the solid-liquid transition – was more than 300 °C.
`O=C(O)c1cncc(NC(=S)Nc2cccc(F)c2)c1` [Compound 11, 5-(3-(3-Fluorophenyl)thioureido) pyridine-3-carboxylic acid] had a melting point of more than 300 °C.
`COc1ccc(NC(=S)Nc2cncc(C(=O)O)c2)cc1` [Compound 6, 5-(3-(4-Methoxyphenyl)thioureido) pyridine-3-carboxylic acid] gave a melting point of more than 300 °C.
In the case of `O=C(O)c1cncc(NC(=S)Nc2ccc(F)cc2)c1` [Compound 4, 5-(3-(4-Fluorophenyl)thioureido)pyridine-3-carboxylic acid], the melting point is more than 300 °C.
Then `O=C(O)c1cncc(NC(=S)Nc2ccccc2F)c1` [Compound 10, 5-(3-(2-Fluorophenyl)thioureido) pyridine-3-carboxylic acid], with more than 300 °C; and `O=C(O)c1cncc(NC(=S)Nc2ccccc2)c1` [Compound 1, 5-(3-Phenylthioureido)pyridine-3-carboxylic acid], with more than 300 °C; and `Cc1ccc(NC(=S)Nc2cncc(C(=O)O)c2)cc1` [Compound 3, 5-(3-p-Tolylthioureido)pyridine-3-carboxylic acid], with more than 300 °C.
In turn, `Cc1ccc(NC(=S)Nc2cncc(C(=O)O)c2)cc1Cl` [Compound 9, 5-(3-(3-Chloro-4-methylphenyl)thioureido) pyridine-3-carboxylic acid] registered a melting point of more than 300 °C.
Compound `O=C(O)c1cncc(NC(=S)Nc2ccc(Br)cc2)c1` [Compound 7, 5-(3-(4-Bromophenyl)thioureido) pyridine-3-carboxylic acid] displayed a melting point of more than 300 °C.
As for `O=C(O)c1cncc(NC(=S)Nc2ccc(C(F)(F)F)cc2)c1` [Compound 8, 5-(3-(4-(Trifluoromethyl)phenyl)thioureido) pyridine-3-carboxylic acid], the figure is more than 300 °C.
The compound `O=C(O)c1cncc(NC(=S)Nc2cccc(Br)c2)c1` [Compound 13, 5-(3-(3-Bromophenyl)thioureido) pyridine-3-carboxylic acid] showed a melting point of more than 300 °C.
As to `O=C(O)c1cncc(NC(=S)Nc2ccc([N+](=O)[O-])cc2)c1` [Compound 5, 5-(3-(4-Nitrophenyl)thioureido) pyridine-3-carboxylic acid], the melting point was more than 300 °C.
Compound `O=C(O)c1cncc(NC(=S)Nc2ccccc2Br)c1` [Compound 12, 5-(3-(2-Bromophenyl)thioureido) pyridine-3-carboxylic acid] had a melting point of more than 300 °C.

For the origin of these results see article PMC7362424, “Structural elucidation, molecular docking, α-amylase and α-glucosidase inhibition studies of 5-amino-nicotinic acid derivatives” (BMC Chemistry, 2020).
